Results from US4492704A, “Quinoline quinones and anti-asthmatic use thereof” (Eli Lilly and Company, priority 1982, dated 1985).
Where two headings read alike, the source gives them in different places.

Experiments:
SRS-A release = test: Inhibition of SRS-A (leukotriene) release from ovalbumin-challenged sensitized guinea pig lung fragments; format: cell-based; settings: for inhibition at 10 µM / inhibition at 30 µM / inhibition at 3 µM / inhibition at 1 µM: Cavia porcellus, read-out: Percent Inhibition of SRS-A Release
Protocol: Male, Hartley guinea pigs, usually 1-2 weeks old were sensitized with respect to ovalbumin by intraperitoneal administration of 0.15 ml hyperimmune serum obtained from guinea pigs actively sensitized against ovalbumin. […] Poorly perfused and bloody areas were discarded. Normal lung was cut into 1 mm cubes with a McIlwain tissue chopper, washed with Krebs' solution and divided into 400 mg aliquots. The fragmented tissue was then incubated at 37° C. for 15 minutes in Krebs' solution containing indomethacin to optimize SRS-A release and an appropriate concentration of experimental drug. Antigen (ovalbumin) was then added to make a final concentration of 1×10^-5 g/ml. Fifteen minutes later, the incubation medium was decanted and centrifuged at 3,000 g at 4° C. for 5 minutes. […] Release of SRS-A in the presence of an experimental drug was compared to a control sample and the results expressed as percent inhibition of SRS-A release.

[1] = pKa using 66% aqueous dimethylformamide solution; format: physicochemical
Protocol: The precipitate was then dissolved in a solution of 1 L of water and 50 g of sodium hydroxide and then heated to about 60° for about ten minutes. Slowly, 50 g of sodium dithionite were added with stirring. After the addition, the reaction solution was kept at about 60° for about three hours. An orange precipitate was formed and the reaction was then allowed to cool to room temperature and sodium chloride was added. The orange solid, which was filtered and then dried, weighed 19 g (70% yield).
The preparation of 2-methyl-5-amino-8-hydroxyquinoline follows the procedure outlined in Example 1, except 15.9 g of 2-methyl-8-hydroxyquinoline were used as the starting material. […] The mass spectrum indicated the expected molecular ion at m/e=174. The pKa was 5.00, using 66% aqueous dimethylformamide solution and the apparent molecular weight was 188.

[2] = 1 × 10^-5 M, sensitized guinea pig lung fragments, ovalbumin challenge, indomethacin present
[3] = 3 × 10^-5 M, sensitized guinea pig lung fragments, ovalbumin challenge, indomethacin present
[4] = 3 × 10^-6 M, sensitized guinea pig lung fragments, ovalbumin challenge, indomethacin present
[5] = 1 × 10^-6 M, sensitized guinea pig lung fragments, ovalbumin challenge, indomethacin present

Compound	inhibition at 10 µM (SRS-A release; [2]) [%]	inhibition at 30 µM (SRS-A release; [3]) [%]	also measured
C=CCNC1=CC(=O)c2ncccc2C1=O [6-(2-propenyl)aminoquinoline-5,8-quinone]	53	–	–
Cc1ccccc1NC1=CC(=O)c2ncccc2C1=O [6-(2-methylanilino)quinoline-5,8-quinone]	–	80	inhibition at 3 µM (SRS-A release; [4]): 17%
CCN(C1=CC(=O)c2ncccc2C1=O)c1ccccc1 [Example 15, 6-(N--ethylanilino)quinoline-5,8-quinone]	53	–	–
O=C1C(Nc2cccc(Cl)c2)=CC(=O)c2ncccc21 [Example 22, 6-(3-chloroanilino)quinoline-5,8-quinone]	71	–	–
O=C1C(Nc2cccc(Br)c2)=CC(=O)c2ncccc21 [Example 23, 6-(3-bromoanilino)quinoline-5,8-quinone]	45	–	–
O=C1C(NC2CC2)=CC(=O)c2ncccc21 [6-cyclopropylaminoquinoline-5,8-quinone]	–	48	–
O=C1C(Nc2cccc3c2CCCC3)=CC(=O)c2ncccc21 [Example 12, 6-(1-amino-5,6,7,8-tetrahydronaphthalene)quinoline-5,8-quinone]	23	–	–
COc1ccccc1NC1=CC(=O)c2ncccc2C1=O [6-(2-methoxyanilino)quinoline-5,8-quinone]	–	38	inhibition at 3 µM (SRS-A release; [4]): 0%
O=C1C(Nc2ccccc2C(F)(F)F)=CC(=O)c2ncccc21 [6-(2-trifluoromethylanilino)quinoline-5,8-quinone]	52	–	–
CCCN(C)C1=CC(=O)c2ncccc2C1=O [6-methylpropylaminoquinoline-5,8-quinone]	–	–	Percent Inhibition of SRS-A Release (SRS-A release; [3]): 61%
CN(C1=CC(=O)c2ncccc2C1=O)c1ccccc1 [6-(N--methylanilino)quinoline-5,8-quinone]	80	–	inhibition at 1 µM (SRS-A release; [5]): 16%; inhibition at 3 µM (SRS-A release; [4]): 27%
O=C1C(Nc2ccccc2Cl)=CC(=O)c2ncccc21 [6-(2-chloroanilino)quinoline-5,8-quinone]	–	78	inhibition at 1 µM (SRS-A release; [5]): 24%; inhibition at 3 µM (SRS-A release; [4]): 23%
CC(C)NC1=CC(=O)c2ncccc2C1=O [6-isopropylaminoquinoline-5,8-quinone]	–	28	–
CNC1=CC(=O)c2ncccc2C1=O [6-methylaminoquinoline-5,8-quinone]	28	51	–
O=C1C(N2CCOCC2)=CC(=O)c2ncccc21 [6-morpholinylquinoline-5,8-quinone]	28	63	–
CSc1cccc(NC2=CC(=O)c3ncccc3C2=O)c1 [6-(3-methylthioanilino)quinoline-5,8-quinone]	–	55	inhibition at 3 µM (SRS-A release; [4]): 16%
O=C1C(Nc2ccc(Cl)cc2)=CC(=O)c2ncccc21 [6-(4-chloroanilino)quinoline-5,8-quinone]	23	68	–
CN(C)CCNC1=CC(=O)c2ncccc2C1=O [Example 18, 6-dimethylaminoethylaminoquinoline-5,8-quinone]	40	–	–

Compound	inhibition at 10 µM (SRS-A release; [2]) [%]	inhibition at 30 µM (SRS-A release; [3]) [%]	also measured
Cc1cccc(NC2=CC(=O)c3ncccc3C2=O)c1 [Example 20, 6-(3-methylanilino)quinoline-5,8-quinone]	69	–	–
CCCN(C1=CC(=O)c2ncccc2C1=O)c1ccccc1 [6-(N--propylanilino)quinoline-5,8-quinone]	28	39	–
6-(flouroanilino)quinoline-5,8-quinone [Example 16]	–	–	Percent Inhibition of SRS-A Release (SRS-A release; [2]): 39%
C=CCN(C1=CC(=O)c2ncccc2C1=O)c1ccccc1 [6-[N--(2-propenyl)anilino]quinoline-5,8-quinone]	41	–	–
Cc1ccc2c(n1)C(=O)C=C(Nc1ccccc1)C2=O [Example 11, 2-methyl-6-anilinoquinoline-5,8-quinone]	55	–	–
O=C1C(Nc2ccccc2F)=CC(=O)c2ncccc21 [Example 17, 6-(2-flouroanilino)quinoline-5,8-quinone]	71	–	inhibition at 1 µM (SRS-A release; [5]): 0%
CC(=O)c1cccc(NC2=CC(=O)c3ncccc3C2=O)c1 [Example 25, 6-(3-acetylanilino)quinoline-5,8-quinone]	–	–	inhibition at 3 µM (SRS-A release; [4]): 36%
O=C1C(Nc2ccc(O)cc2)=CC(=O)c2ncccc21 [Example 13, 6-(4-hydroxyanilino)quinoline-5,8-quinone]	58	–	–
O=C1C(NC2CCCCC2)=CC(=O)c2ncccc21 [Example 14, 6-cyclohexylaminoquinoline-5,8-quinone]	53	–	inhibition at 1 µM (SRS-A release; [5]): 0%
O=C1C(Nc2cccc(F)c2)=CC(=O)c2ncccc21 [Example 19, 6-(3-flouroanilino)quinoline-5,8-quinone]	76	94	inhibition at 1 µM (SRS-A release; [5]): 13%
COc1ccc(NC2=CC(=O)c3ncccc3C2=O)cc1 [Example 8, 6-(4-methoxyanilino)quinoline-5,8-quinone]	32	–	–
Cc1ccc2c(N)ccc(O)c2n1 [Example 2, 2-methyl-5-amino-8-hydroxyquinoline]	–	–	pKa [1]: 5
O=C1C(Nc2ccc([N+](=O)[O-])cc2)=CC(=O)c2ncccc21 [Example 9, 6-(4-nitroanilino)quinoline-5,8-quinone]	41	–	–
COc1cc(N)c2ncccc2c1N [Example 1, 5,8-diamino-6-methoxyquinoline]	–	–	pKa [1]: 5.08
O=C1C(Nc2ccccc2)=CC(=O)c2ncccc21 [7,10, 6-anilinoquinoline-5,8-quinone]	–	–	inhibition at 1 µM (SRS-A release): 28%; inhibition at 3 µM (SRS-A release): 54%; inhibition at 10 µM (SRS-A release): 79%; inhibition at 30 µM (SRS-A release): 86%
O=C1C(N2CCCCC2)=CC(=O)c2ncccc21 [6-piperidinylquinoline-5,8-quinone]	68	–	–
O=C1C(Nc2cccc(C(F)(F)F)c2)=CC(=O)c2ncccc21 [Example 24, 6-(3-triflouromethylanilino)quinoline-5,8-quinone]	53	–	–
COc1cccc(NC2=CC(=O)c3ncccc3C2=O)c1 [Example 21, 6-(3-methoxyanilino)quinoline-5,8-quinone]	72	–	–
